Laboratory results published in US6451576B1, “Sesquiterpene synthases from grand fir (Abies grandis), and methods of use” (Washington State University Research Foundation, priority 1998, dated 2002).

Tests used:
[1] = molecular target: T1, γ-humulene synthase (SEQ ID No:24) (Abies grandis, UniProt O64405); experiment: Kinetic parameters, metal ion requirement and substrate specificity of recombinant γ-humulene synthase; format: biochemical
T1 construct: For further subcloning of the amplified, full-length cDNA into the pSBETa vector for high-level expression, the pGAG5 insert was amplified; made in house; host or cells: E. coli XL1-Blue/pGAG5 or E. coli BL21(DE3)/pSBAG5
T1 sequence (O64405 1-593): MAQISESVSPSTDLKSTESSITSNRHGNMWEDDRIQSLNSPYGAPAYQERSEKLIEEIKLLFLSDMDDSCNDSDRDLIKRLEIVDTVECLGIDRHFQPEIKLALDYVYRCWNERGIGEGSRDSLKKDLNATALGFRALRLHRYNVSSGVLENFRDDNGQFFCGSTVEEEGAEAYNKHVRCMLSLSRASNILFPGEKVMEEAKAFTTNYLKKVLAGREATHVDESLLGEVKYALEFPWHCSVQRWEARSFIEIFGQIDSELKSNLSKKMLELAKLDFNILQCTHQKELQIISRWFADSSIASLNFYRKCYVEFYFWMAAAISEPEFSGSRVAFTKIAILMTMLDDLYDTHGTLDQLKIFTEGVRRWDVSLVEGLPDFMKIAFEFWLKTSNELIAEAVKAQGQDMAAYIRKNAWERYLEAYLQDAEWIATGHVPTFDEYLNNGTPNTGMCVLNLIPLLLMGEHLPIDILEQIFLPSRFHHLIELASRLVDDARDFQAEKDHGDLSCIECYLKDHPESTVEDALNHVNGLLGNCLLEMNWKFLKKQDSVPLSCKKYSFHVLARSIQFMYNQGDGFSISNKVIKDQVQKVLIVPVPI
Description: (§1) The assay for recombinant sesquiterpene synthase (cyclase) activity was performed in 1 ml of buffer (extraction buffer without MnCl2 or the polymeric adsorbents) containing 3.5 μM [1-^3H]farnesyl diphosphate and the total protein extracted from a 5 ml bacterial culture to produce 10^5-10^6 dpm of product in 2 h at 31° C. The incubation mixture was overlaid with 1 ml pentane to trap volatile products. After incubation, the reaction mixture was extracted with pentane (3×1 ml) and the combined extract was passed through a MgSO4-silica gel column to provide the terpene hydrocarbon fractions as before. The columns were subsequently eluted with 3×1 ml of ether to collect any oxygenated products, and an aliquot of each fraction was taken for liquid scintillation counting to determine conversion rate. The monoterpene synthase and diterpene synthase activity assays were similarly performed as described in detail elsewhere (LaFever, R. E., et al., (1994) Arch. Biochem. Biophys. 313, 139-149; Bohlmann, J., et al., (1997) J. Biol. Chem. 272, 21784-21792; Lewinsohn, E., et al., (1991) Plant Physiol. 96, 38-43).
(§2) The substrate specificity and other kinetic. parameters of γ-humulene synthase (SEQ ID No:24) and δ-selinene synthase (SEQ ID No:20) were investigated in order to confirm the identification and classification of these enzymes. […] Neither of these sesquiterpene synthases requires K^+ or other monovalent cation for activity.
(§3) Substrate specificity of δ-selinene synthase (SEQ ID No:20) and γ-humulene synthase (SEQ ID No:24) was evaluated by comparing farnesyl diphosphate (C15) to geranyl diphosphate (C10) and geranylgeranyl diphosphate (C20) at saturation as precursors of the respective terpene olefins. […] The identities of the monoterpene products produced by the sesquiterpene synthases were determined by GLC-MS and are set forth in FIG. 4.

[2] = molecular target: T2, δ-selinene synthase (SEQ ID No:20) (Abies grandis, UniProt O64404); experiment: Kinetic parameters, metal ion requirement and substrate specificity of recombinant δ-selinene synthase; format: biochemical
T2 construct: made in house; host or cells: E. coli XL1-Blue/pGAG4 or E. coli BL21(DE3)/pSBAG4
T2 sequence (O64404 1-581): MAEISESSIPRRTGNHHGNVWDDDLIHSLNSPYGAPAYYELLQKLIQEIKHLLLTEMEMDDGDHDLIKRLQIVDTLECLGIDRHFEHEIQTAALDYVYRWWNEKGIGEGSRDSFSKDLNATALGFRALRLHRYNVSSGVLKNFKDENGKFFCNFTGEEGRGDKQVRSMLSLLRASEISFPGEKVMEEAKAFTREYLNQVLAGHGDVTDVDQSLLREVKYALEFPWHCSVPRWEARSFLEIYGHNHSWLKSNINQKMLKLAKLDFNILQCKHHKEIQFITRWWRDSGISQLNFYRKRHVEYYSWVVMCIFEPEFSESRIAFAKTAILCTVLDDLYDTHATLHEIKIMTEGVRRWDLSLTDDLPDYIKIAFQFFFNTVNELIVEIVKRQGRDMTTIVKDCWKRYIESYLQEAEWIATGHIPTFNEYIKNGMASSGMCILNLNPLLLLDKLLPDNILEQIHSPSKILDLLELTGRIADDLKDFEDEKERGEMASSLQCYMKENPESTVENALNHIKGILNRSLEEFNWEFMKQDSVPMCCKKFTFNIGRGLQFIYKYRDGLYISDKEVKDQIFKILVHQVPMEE
Description: as §1, §2, §3

Row | SMILES | olefin formation from substrate at saturation, compared with farnesyl diphosphate [1] | olefin formation from substrate at saturation, compared with farnesyl diphosphate [2]
1 | CC(C)=CCC/C(C)=C/COP(=O)(O)OP(=O)(O)O [geranyl diphosphate, reference compound] | roughly half the rate | roughly half the rate
2 | CC(C)=CCC/C(C)=C/CC/C(C)=C/CC/C(C)=C/COP(=O)(O)OP(=O)(O)O [geranylgeranyl diphosphate, reference compound] | failed to generate detectable olefinic products | failed to generate detectable olefinic products
